# Key:
# panelists = experiment: Panel tasting of aqueous solutions for cooling intensity versus menthol at 2 ppm; type: in vivo; conditions: aqueous solution; concentration with cooling intensity similar or slightly higher than a solution of menthol at 2 ppm
# Text: Experiments on cooling properties/intensities.
# A group of panelists was asked to taste various aqueous solutions of compounds of formula (I) and to indicate which solutions had cooling intensities similar or slightly higher than that of a solution of menthol at 2 ppm.
# panelist = experiment: Application in toothpaste: panelist's teeth brushed with toothgel containing the cooling compound; type: in vivo; conditions: 0.20 g of 5% (w/w) ethanol solution in opaque toothgel with peppermint oil and saccharin, after brushing and rinsing
# Protocol: [table] The chemicals were mixed in the toothgel, a piece of toothgel was put on a toothbrush and a panelist's teeth were brushed. The mouth was rinsed with water and the water was spit out. […] The cooling perception lasted for 90 minutes.
smiles,measurement,setting,value
"CC1CCC(C(C)C)C(O)C1 (stereo not drawn) [Example 1-Menthol, 1-Menthol, reference compound]",Concentration,panelists,2 ppm solution
"COc1ccc(C(=O)OC(=Cc2nc3cc(C)ccc3n2C(C)C)c2ccc(OC)cc2)cc1 [Example 3, 2-(1-isopropyl-5-methyl-1H-benzo[d]imidazol-2-yl)-1-(4-methoxyphenyl)vinyl 4-methoxybenzoate]",Concentration,panelists,0.5 ppm
same,melting point,,147 to 152 °C
"Cc1ccc2nc(C=C(OC(=O)c3ccc(Cl)cc3)c3ccc(Cl)cc3)n(C(C)C)c2c1 [Example 4, 1-(4-chlorophenyl)-2-(1-isopropyl-6-methyl-1H-benzo[d]imidazol-2-yl)vinyl 4-chlorobenzoate]",melting point,,158 to 165 °C
"COc1ccc(C(=O)OC(=Cc2nc3cc(C)ccc3n2C(C)C)c2ccc(Cl)cc2)cc1 [Example 2, 1-(4-chlorophenyl)-2-(1-isopropyl-5-methyl-1H-benzo[d]imidazol-2-yl)vinyl 4-methoxybenzoate]",melting point,,155 to 160 °C
"CCNC(=O)C1CC(C)CCC1C(C)C (stereo not drawn) [N-ethyl p-menthanecarboxamide (WS-3), N-ethyl p-menthanecarboxamide, reference compound]",Concentration,panelists,1.5 ppm
"COc1ccc(C(=O)OC(=Cc2nc3ccc(C)cc3n2C(C)C)c2ccc(OC)cc2)cc1 [Example 5, 2-(1-isopropyl-6-methyl-1H-benzo[d]imidazol-2-yl)-1-(4-methoxyphenyl)vinyl 4-methoxybenzoate]",Concentration,panelists,0.5 ppm
same,Duration of cooling perception,panelist,90 min
same,Cooling sensation felt by the panelist,panelist; all areas of the mouth,intense cooling sensation
same,melting point,,125 to 130 °C
"Cc1ccc(C(=O)OC(=Cc2nc3ccccc3n2C)c2ccc(C)cc2)cc1 [Example 8, 2-(1-methyl-1H-benzo[d]imidazol-2-yl)-1-p-tolylvinyl 4-methylbenzoate]",Concentration,panelists,2.0 ppm
COc1ccc(C(=O)OC(=Cc2nc3ccccc3n2C)c2ccc(OC)cc2)cc1 [1-(4-methoxyphenyl)-2-(1-methyl-1H-benzo[d]imidazol-2-yl)vinyl 4-methoxybenzoate],Concentration,panelists,0.5 ppm

# — US20090312384A1, “Benzimidazole As Cooling Compounds” (priority 2006, published 2009)
